The record followed here is patent US20250090437A1, “COSMETIC COMPOUNDING AGENT, COSMETIC AND PRODUCTION METHOD THEREOF” (MIYOSHI OIL & FAT CO., LTD., priority 2019, published 2025).

Data set [1] is described as follows: Water retention property and adherability with respect to healthy hair. More on the design: species or system human. The conditions noted are these: for Post-test moisture rate / Compound adhesion rate: healthy hair immersed 60 min in 80 wt % aqueous solution; for Post-test moisture rate: after 24 hours at 40° C., pre-test 7.6%; for Post-test moisture rate / Rate of reduction in moisture: 35 to 40% RH; for Rate of reduction in moisture: healthy hair, 80 wt % aqueous solution, 24 hours at 40° C.; for Adherability to the healthy hair: compared to the compounds of comparative examples B1 to B8. As to the method: In the following evaluations, a human black hair produced by Beaulax Co., Ltd was used as a healthy hair. A damaged hair was prepared by repeatedly having the healthy hair permed and bleached three times.
An 80 wt % aqueous solution of each of the compounds B1 to B26 (content in terms of anhydride in the cases of the compounds B1 to B23) was prepared, followed by using a Karl Fischer moisture meter (KF-200 by Mitsubishi Chemical Analytech Co., Ltd.) to confirm that a moisture rate was 20.0 wt %. As a healthy hair, there was used a chemically untreated healthy hair (human black hair by Beaulax Co., Ltd). The moisture rate (pre-test moisture rate A) of the hair was measured by an infrared moisture meter (by Kett Electric Laboratory).
After immersion, the hair was taken out, and KimWipes were then used to wipe off the compound until a change in weight was no longer observed, followed by measuring the weight of the hair (post-test hair weight B). The hair from which the compound had been wiped off was then placed into a thermo-hygrostat set to 40° C. and 35 to 40% RH. A moisture rate after 24 hours (post-test moisture rate B) was then measured, followed by calculating a rate of reduction in moisture with the following formula. Likewise, instead of the 80 wt % aqueous solution, evaluation was also performed in a similar manner using only an ion-exchange water (comparative example B4).
Further, an adhesion rate of the compound adhering to the hair was calculated with the following formula. […]

Data set [2] in a line: Water confinement property test (barrier property). The following applies: 80 wt % aqueous solution, 0.01 mL/cm^2 on filter paper, 40° C. and 25% RH, 24 hours. The data set is classed as physicochemical. As to the method:
Next, 20.0 g of an ion-exchange water was put into a 40 mL pierce vial bottle (by AS ONE Corporation.), followed by removing an inner lid (rubber plug) of the pierce vial bottle, placing on the pierce vial bottle the filter paper to which each sample had been applied, and then plugging the bottle with an outer lid.
Further, Wm1, Wm2, Sm1 and Sm2 in the formula below respectively represent the following numerical values.
Wm1: Weight of ion-exchange water in vial before storage (using filter paper to which only ion-exchange water had been applied)
Wm2: Weight of ion-exchange water in vial after 24 hours (using filter paper to which only ion-exchange water had been applied)
Sm1: Weight of ion-exchange water in vial before storage (using filter paper to which sample had been applied)
Sm2: Weight of ion-exchange water in vial after 24 hours (using filter paper to which sample had been applied)

A short description of data set [3]: Water retention property test 1. In kind it is physicochemical. The conditions noted are these: 80 wt % aqueous solution; for Pre-test moisture rate: before the test (Karl Fischer); for Post-test moisture rate / Rate of reduction in moisture: unsealed; for Post-test moisture rate / Rate of reduction in moisture / Water retention property test 1 Post-test moisture rate / Water retention property test 1 Rate of reduction in moisture: 24 hours at 40° C. and 25% RH. The protocol:
A moisture rate after 24 hours was again measured (post-test moisture rate: B), followed by using the formula below to calculate a rate of reduction in moisture so as to evaluate the water retention property. • Pre-test moisture rate: A (%) • Post-test moisture rate: B (%)

A short description of data set [4]: Sensory evaluation on damaged hair after using organic ammonium salt. Further details: species or system human. The conditions noted are these: compared to the compounds of the comparative examples. The protocol:
Here, an 80 wt % aqueous solution(s) of each of the compounds B11, B12, B23, B26 and B27 (content in terms of anhydride in the cases of the compounds B11, B12 and B23) were prepared and used as samples. Next, one minute was spent in evenly applying 10.0 g of each sample to a bundle of the damaged hairs weighing about 10 g, using a brush; the bundle of the damaged hairs was then left for 5 min. After leaving it for 5 min, the bundle of the damaged hairs was rinsed with a hot water of 40° C. for 30 sec, and evaluated was a finger-combing capability at the time of performing washing. The hair bundle that had been rinsed was then dried with a towel and further subjected to air drying for a day, followed by evaluating items such as elasticity/resilience (feeling by bare hands), cohesiveness, surface smoothness and non-waviness, from the perspective of superiority or inferiority to a test hair bundle(s) uncoated with the sample.

Data set [5] can be described thus: Sensory evaluation on healthy hair after using organic ammonium salt. More on the design: species or system human. The following applies: compared to the compounds of the comparative examples. As to the method:
Here, an 80 wt % aqueous solution(s) of each of the compounds B11, B12, B23, B26 and B27 (content in terms of anhydride in the cases of the compounds B11, B12 and B23) were prepared and used as samples. Next, one minute was spent in evenly applying 10.0 g of each sample to a bundle of the healthy hairs weighing about 10 g, using a brush; the bundle of the healthy hairs was then left for 5 min. After leaving it for 5 min, the bundle of the healthy hairs was rinsed with a hot water of 40° C. for 30 sec, and evaluated was a finger-combing capability at the time of performing washing. The hair bundle that had been rinsed was then dried with a towel and further subjected to air drying for a day, followed by evaluating items such as flexibility, finger-combing capability, texture, elasticity/resilience (feeling by bare hands), volume increase (visual evaluation), cohesiveness, moist feeling, surface smoothness, non-stickiness (feeling by bare hands) and gloss (visual evaluation), from the perspective of superiority or inferiority to a test hair bundle(s) uncoated with the sample.

Take `CCCC[N+](CCCC)(CCCC)CCCC.[Br-]` [Compound A54, tetrabutylammonium bromide, reference compound]: in data set [1], the Post-test moisture rate was 4.0% and the “Rate of reduction in moisture” value is listed as 47%. This compound also registered a Compound adhesion rate in data set [1] (listed as B24) of 1.0%. Further, the “Water evaporation inhibition rate” value in data set [2] came to 29.5%. In data set [3], the Pre-test moisture rate worked out at 20.0%, the Post-test moisture rate was determined as 15.3% and the “Rate of reduction in moisture” value amounted to 23.6%.

With `NC(CO)(CO)CO.O=C(O)CC(O)(CC(=O)O)C(=O)O` [Compound B13], in data set [1], the Compound adhesion rate worked out at 2.3%, the Post-test moisture rate was 6.5% and the “Rate of reduction in moisture” value was 15%.

`NC(CO)(CO)CO.O=C(O)CO` [Compound B14]: in data set [1], the Compound adhesion rate was found to be 1.3%, the Post-test moisture rate amounted to 7.4% and the “Rate of reduction in moisture” value was 3%.

For `CC(=O)CCC(=O)O.NC(CO)(CO)CO` [Compound B17], in data set [1], the Compound adhesion rate is listed as 6.9%, the Post-test moisture rate came out at 6.5% and the “Rate of reduction in moisture” value is listed as 15%.

For the compound `NC(CO)(CO)CO.O=C1OC(C(O)CO)C(O)=C1O` (stereo not drawn) [Compound B20], in data set [1], the Compound adhesion rate was 2.1%, the Post-test moisture rate came out at 6.6% and the “Rate of reduction in moisture” value was 14%.

As for `O` [Compound B21], in data set [1], the Compound adhesion rate was found to be 1.1%, the Post-test moisture rate worked out at 5.8% and the “Rate of reduction in moisture” value worked out at 24%.

As for `CCCCn1cc[n+](C)c1.[Cl-]` [Compound B25, 1-butyl-3-methylimidazolium chloride, reference compound], in data set [1], the Compound adhesion rate was found to be 1.0%, the Post-test moisture rate came to 4.0% and the “Rate of reduction in moisture” value is reported as 47%.

As for `CCCCCCCC/C=C\CCCCCCCC(=O)OCC(N)(CO)CO` [Compound B30, 2-amino-2-hydroxymethyl-1,3-propanediol oleate], in data set [1], the “Adherability to the healthy hair” value is on record as “higher adherability”. Moreover, the “Sensory evaluation on damaged hair (elasticity/resilience, cohesiveness, surface smoothness, suppression of waviness)” value in data set [4] is recorded as “superior”. Besides, the “Sensory evaluation on healthy hair (flexibility, finger-combing, texture, elasticity/resilience, volume, cohesiveness, moist feeling, smoothness, non-stickiness, gloss)” value in data set [5] is “superior”.

For the compound `CC(C)CCCCCCCCCCCCCCC(=O)OCC(N)(CO)CO` [Compound B32, 2-amino-2-hydroxymethyl-1,3-propanediol isostearate], the “Adherability to the healthy hair” value in data set [1] is “higher adherability”. The “Sensory evaluation on damaged hair (elasticity/resilience, cohesiveness, surface smoothness, suppression of waviness)” value in data set [4] is “superior”. Moreover, the “Sensory evaluation on healthy hair (flexibility, finger-combing, texture, elasticity/resilience, volume, cohesiveness, moist feeling, smoothness, non-stickiness, gloss)” value in data set [5] was “superior”.

With `CCCCCCCC/C=C\CCCCCCCC(=O)OCC(C)(N)CO` (stereo not drawn) [Compound B33, 2-amino-2-methyl-1,3-propanediol oleate], the “Adherability to the healthy hair” value in data set [1] is given as “higher adherability”. Further, the “Sensory evaluation on damaged hair (elasticity/resilience, cohesiveness, surface smoothness, suppression of waviness)” value in data set [4] is “superior”. The “Sensory evaluation on healthy hair (flexibility, finger-combing, texture, elasticity/resilience, volume, cohesiveness, moist feeling, smoothness, non-stickiness, gloss)” value in data set [5] is listed as “superior”.

As for `CCCCC/C=C\C/C=C\CCCCCCCC(=O)OCC(C)(N)CO` (stereo not drawn) [Compound B34, 2-amino-2-methyl-1,3-propanediol linoleate], the “Adherability to the healthy hair” value in data set [1] is recorded as “higher adherability”. In addition, the “Sensory evaluation on damaged hair (elasticity/resilience, cohesiveness, surface smoothness, suppression of waviness)” value in data set [4] is given as “superior”. The “Sensory evaluation on healthy hair (flexibility, finger-combing, texture, elasticity/resilience, volume, cohesiveness, moist feeling, smoothness, non-stickiness, gloss)” value in data set [5] is reported as “superior”.

`CC(C)(C)CO` [Compound C43]: the “Water evaporation inhibition rate” value in data set [2] is reported as 39.7%. In data set [3], the “Water retention property test 1 Pre-test moisture rate” value is reported as 20.0%, the “Water retention property test 1 Post-test moisture rate” value is listed as 19.3% and the “Water retention property test 1 Rate of reduction in moisture” value turned out to be 4.4%.

Take `CC(C)(CO)CO` [Compound C47]: in data set [2], the “Water evaporation inhibition rate” value came to 34.8%. For the same compound, in data set [3], the “Water retention property test 1 Pre-test moisture rate” value is 20.0%, the “Water retention property test 1 Post-test moisture rate” value amounted to 19.2% and the “Water retention property test 1 Rate of reduction in moisture” value came out at 4.7%.

Take `CC(CO)(CO)CO` [Compound C50]: the “Water evaporation inhibition rate” value in data set [2] stood at 39.1%. For the same compound, in data set [3], the Pre-test moisture rate worked out at 20.0%, the Post-test moisture rate is 19.1% and the “Rate of reduction in moisture” value is 4.4%.

As for `CC(CO)(CO)CO` [Compound C51], the “Water evaporation inhibition rate” value in data set [2] is reported as 35.6%. Also, in data set [3], the Pre-test moisture rate was determined as 20.0%, the Post-test moisture rate is reported as 19.1% and the “Rate of reduction in moisture” value was found to be 4.5%.

As to `CC(CO)(CO)CO` [Compound C52], the “Water evaporation inhibition rate” value in data set [2] is recorded as 36.8%. In data set [3], the Pre-test moisture rate is on record as 20.0%, the Post-test moisture rate is listed as 18.6% and the “Rate of reduction in moisture” value was 7.1%.

`CC(CO)(CO)CO` [Compound C53]: in data set [2], the “Water evaporation inhibition rate” value is 34.6%. In addition, in data set [3], the Pre-test moisture rate is on record as 20.0%, the Post-test moisture rate was 19.1% and the “Rate of reduction in moisture” value stood at 4.4%.

Regarding `CC(CO)(CO)CO` [Compound C54], in data set [2], the “Water evaporation inhibition rate” value is listed as 30.3%. For the same compound, in data set [3], the Pre-test moisture rate stood at 20.0%, the Post-test moisture rate was determined as 18.8% and the “Rate of reduction in moisture” value worked out at 5.8%.

Take `CC(CO)(CO)CO` [Compound C55]: in data set [2], the “Water evaporation inhibition rate” value came out at 34.1%. In data set [3], the Pre-test moisture rate came to 20.0%, the Post-test moisture rate amounted to 18.4% and the “Rate of reduction in moisture” value is on record as 7.9%.

`CCCCn1cc[n+](C)c1.F[B-](F)(F)F` [Compound C63, 1-butyl-3-methylimidazolium tetrafluoroborate, reference compound]: the “Water evaporation inhibition rate” value in data set [2] worked out at 25.7%. Further, in data set [3], the Pre-test moisture rate was determined as 20.0%, the Post-test moisture rate is 11.7% and the “Rate of reduction in moisture” value turned out to be 41.7%.

With `CC(C)(CO)CO` [Compound C65], the “Water evaporation inhibition rate” value in data set [2] is 39.4%.

In the case of `CC(N)(CO)CO.NCCCCCC(=O)O` [Compound C76], the “Water evaporation inhibition rate” value in data set [2] was determined as 35.7%.

Take `CC(CO)(CO)CO` [Compound C77]: the “Water evaporation inhibition rate” value in data set [2] is 35.4%.

As for `NC(CO)(CO)CO.O=C(O)CC(O)(CC(=O)O)C(=O)O` [Compound C82], the “Water evaporation inhibition rate” value in data set [2] is recorded as 35.8%.

In the case of `CS(=O)(=O)O.NC(CO)(CO)CO` [Compound C83], in data set [2], the “Water evaporation inhibition rate” value is listed as 31.3%.
